Experimental data: patent publication US7001746B1, “Methods and compositions for the differentiation of human preadipocytes into adipocytes” (Artecel Sciences, Inc., priority 1999, dated 2006)

How the values were obtained:
human preadipocytes [1] = assay: Differentiation of human preadipocytes to adipocytes, Oil Red O staining (Example 2); assay type: cell-based; details: Adipocyte, in differentiation medium, read-out: concentration that allows for half maximal stimulation of differentiation
Description: Preadipocytes from the stroma-vascular fraction were resuspended in preadipocyte medium (DME-Ham's F-10, 1:1 (v/v), 10% FBS, and penicillin-streptomycin-fungizone) and plated at 25,000 cells/well in each of the wells of a 96 well plate (150 μl/well). The cells were then placed in a 37° C. 5% CO2 incubator and allowed to settle overnight. The following day, all of the medium was removed and replaced with 150 μl differentiation medium (Dulbecco's Modified Eagle Medium/Ham's F-10 Nutrient Broth (1:1, vol/vol), 15 mM HEPES buffer, pH 7.4, 33 μM biotin, 17 μM pantothenate, 0.2 mM isobutylmethylxanthine, 100 nM insulin, 1 μM dexamethasone, 1 μM BRL 49653 (diluted into medium from a 100× DMSO stock solution), 10% (vol/vol) fetal bovine serum, 60 U/l streptomycin, 60 U/l penicillin and 25 μg/l Fungizone). The cells were maintained on differentiation medium for 3 days. Additional differentiation medium was added as necessary to maintain the proper volume.
120 μl of the medium was removed, taking care to leave a 30 μl layer over the cell surface to prevent the maturing adipocytes from lifting off of the plate surface due to the surface tension created by removal of all the fluid. […]
(§1) Isopropanol (100 μl/well) was then added and the plate was incubated at room temperature for 10 minutes. […] The optical density was measured at 500 nm. […]

human preadipocytes [2] = details: 1 μM BRL49653
Description: The following procedure was used to determine the amount of lipid that had accumulated in the adipocytes. 120 μl/well of medium was removed from each well of the 96-well plates. Care was taken to prevent drying of the wells. 100 μl/well fixer solution (7% formaldehyde in PBS) was added and the plate was incubated at room temperature for at lease 2 hours. Oil Red O working solution was prepared by adding 4 ml distilled water to 6 ml Oil Red O stock solution (1% Oil Red O in isopropanol). The working solution was incubated for 20 minutes at room temperature and then filtered through Nalgene 0.8 μm filter wear. All of the fixer was removed by aspiration until wells were completely dry.
The cells were then incubated with 40 μl/well Oil Red O working solution at room temperature for 10-15 minutes. Care was taken not to touch the sides of the wells in order to prevent high background due to dye stuck on the wall of the well. The plate was covered during incubation to prevent evaporation. Following this incubation, all of the Oil Red O solution was removed and the cells were washed four times with 200 μl/well distilled water. […]
as §1

[3] = system: differentiated adipocytes; assay: Lipolysis in differentiated human adipocytes, glycerol release (Example 5); assay type: cell-based; details: increasing concentrations, 4 hours, adipocytes from five patients; FIG. 6
Description: Preadipocytes from 5 individual patients were isolated and differentiated into adipocytes as described herein. A 96-well plate of adipocytes differentiated by the method in Example 1 was prepared. After 21 days from plating, the cells were washed in Krebs-Ringer buffer and treated with increasing concentrations of isoproterenol. The positive and negative controls (0.5 μM isoproterenol in KRB and KRB alone, respectively) were added in duplicate. The plates were then incubated at 37° C. for four hours.
When lipolytic agents stimulate adipocytes, triglycerides are converted to glycerol and fatty acids. Lipolytic rate was measured in this example by measuring the glycerol released in the medium. At the end of the incubation time, conditioned medium (100 μl) from each well was transferred into a new plate. Glycerol standards (1 mM, 0.5 mM, 0.25 mM, 0.1 mM, 0.05 mM, 0.025 mM, 0 mM) were included.
Glycerol assay reagent (100 μl; Sigma glycerol assay kit) was added to each well. The solutions were mixed well and incubated at room temperature for 15 minutes and then the optical density of each well was read at 540 nm.

Structure (SMILES)	EC50 (human preadipocytes [1])	differentiation (human preadipocytes [2])	stimulation of lipolysis (glycerol release) [3]
CN(CCOc1ccc(CC2SC(=O)NC2=O)cc1)c1ccccn1 (stereo not drawn) [BRL49653]	50 nM	100%	–
CC(C)NCC(O)c1ccc(O)c(O)c1 (stereo not drawn) [isoproterenol]	–	–	dose-dependently stimulate lipolysis
